Measurements as given in US9226917B2, “Photodynamic therapy for conditions of the eye” (Valeant Pharmaceuticals International, Inc., priority 2008, dated 2016).

What was measured:
[1] = RADICAL study: safety / adverse events; format: in vivo, human; conditions: 12 months
Protocol: The study is a 24-month randomized, controlled trial designed to evaluate 3 combination treatment regimens: (1) very low-fluence vPDT (15 J/cm^2) combined with ranibizumab (0.5 mg) and dexamethasone (0.5 mg); (2) half-fluence vPDT (25 J/cm^2) combined with ranibizumab and dexamethasone; and (3) half-fluence vPDT combined with ranibizumab. These regimens are compared with ranibizumab monotherapy in patients with subfoveal choroidal neovascularization (CNV) due to AMD. Inclusion criteria includes ≧50 years old; naïve to AMD treatment; best-corrected VA (BCVA) letter score of 73-24; subfoveal CNV due to AMD; and lesion size <9 DA. Patients (N=160) are randomly assigned to 1 of the 4 treatment arms at baseline, receive 1 initial treatment, and are to be evaluated for retreatment every month based on novel criteria using OCT and FA. […]
Best-corrected visual acuity is assessed by the ETDRS method at screening, on the day of initial treatment (before treatment), at monthly visits through 6 months, and at the 12-, 18-, and 24-month visits. FA is assessed at screening, at the 3- and 12-month visits, and as required according to re-treatment criteria. OCT is assessed to determine retreatment criteria at every visit. Safety, including intraocular pressure, is also evaluated at every visit. […]

[2] = tested on: subfoveal choroidal neovascularization (CNV) due to AMD; assay: RADICAL study: 24-month randomized, controlled trial of vPDT combination regimens versus ranibizumab monotherapy (visual acuity, retreatments, retinal thickness); format: in vivo, human
Protocol: The study is a 24-month randomized, controlled trial designed to evaluate 3 combination treatment regimens: (1) very low-fluence vPDT (15 J/cm^2) combined with ranibizumab (0.5 mg) and dexamethasone (0.5 mg); (2) half-fluence vPDT (25 J/cm^2) combined with ranibizumab and dexamethasone; and (3) half-fluence vPDT combined with ranibizumab. These regimens are compared with ranibizumab monotherapy in patients with subfoveal choroidal neovascularization (CNV) due to AMD. Inclusion criteria includes ≧50 years old; naïve to AMD treatment; best-corrected VA (BCVA) letter score of 73-24; subfoveal CNV due to AMD; and lesion size <9 DA. Patients (N=160) are randomly assigned to 1 of the 4 treatment arms at baseline, receive 1 initial treatment, and are to be evaluated for retreatment every month based on novel criteria using OCT and FA. Patients in the ranibizumab monotherapy group receive mandatory dosing at months 1 and 2, and as needed thereafter based on the same retreatment criteria. Patients in the combination therapy groups receive assigned treatment as needed (not more frequently than every 2 months), based on retreatment criteria; if treatment is required in an intervening month, then a ranibizumab injection is given. Study outcomes include efficacy, safety, and number of retreatments.
After their initial randomized study treatment, patients in the combination therapy groups return to the clinic monthly for re-treatment evaluation. Re-treatment criteria are based on optical coherence tomography (OCT) and fluorescein angiography (FA). If OCT central retinal thickness (CRT) is ≧250 μm or is increased >50 μm compared with the lowest previous CRT measurement, then the patient is re-treated.
Combination re-treatment is not administered more frequently than every 2 months. If re-treatment is found to be needed in an intervening month, the patient receives a ranibizumab injection only. After their initial randomized study treatment, patients in the ranibizumab monotherapy group receive mandatory re-treatment at months 1 and 2, and then re-treatment as needed thereafter based on the criteria described above. In all treatment arms, monthly assessments and potential re-treatments continue through 12 months of the study. Between 12 and 24 months, patients attend the clinic at least once every 3 months, or more frequently at the investigator's discretion.
Best-corrected visual acuity is assessed by the ETDRS method at screening, on the day of initial treatment (before treatment), at monthly visits through 6 months, and at the 12-, 18-, and 24-month visits. FA is assessed at screening, at the 3- and 12-month visits, and as required according to re-treatment criteria. OCT is assessed to determine retreatment criteria at every visit. Safety, including intraocular pressure, is also evaluated at every visit.
Study outcomes include visual acuity, CRT, lesion size, number of re-treatments, and safety. The primary efficacy variables are mean number of re-treatments and mean change from baseline in visual acuity score.
Randomization occurs on the day of the first treatment to one of the following groups: • Lucentis monotherapy. • Half-fluence Visudyne-Lucentis (V-L) double therapy. • Half-fluence (25 J/cm^2) Visudyne-Lucentis-Dexamethasone (V-L-D) triple therapy. • Very low-fluence (15 J/cm^2) Visudyne-Lucentis-Dexamethasone (V-L-D) triple therapy.
Treatments occur within 7 days of baseline FA. […]

[3] = tested on: CNV due to AMD; conditions: dosing every 3 months compared to continued monthly dosing, on average, over the following 9 months; cited from earlier work
[4] = tested on: AMD and other retinal diseases; conditions: intravitreal injection, published case series; cited from earlier work

Row | Substance | Ocular adverse events considered associated with treatment (share of patients) [1] | percentage of patients whose vision improved by 3 lines or more ([2]; 12 months) | Mean retreatment rate ([2]; ITT, 12 months, Day 0 treatment excluded) | Mean VA improvement from baseline (letters) ([2]; ITT, month 12) | Mean VA improvement from baseline (letters) ([2]; Per-protocol, 12 months) | Mean retreatment rate ([2]; Per-protocol, 12 months) | loss of visual acuity benefit [3] | mean VA in treated patients [4]
1 | ranibizumab [Lucentis monotherapy] | approximately one-fourth | 24% | 5.4 | 6.5 letters | 6.8 letters | 5.9 | ~5 letter | 
2 | bevacizumab [Avastin] |  |  |  |  |  |  |  | increase of mean VA
